Data taken from US5281598A, “Piperazine derivatives” (Akzo N.V., priority 1992, dated 1994).

Legend:
α1 adrenoceptor [1] = experiment: α1 adrenoceptor affinity, prazosin (PRA) binding
Procedure: (§1) The activities are expressed as pKi values (-log Ki values; Ki being the binding constant). The sigma receptor binding was assessed by the 1,3-di-o-tolylguanidine (DTG) binding as described by Fox et al., Eur. J. Pharmacol., 193, 139-143, 1991. The α1 adrenoceptor affinity was assessed by the prazosin (PRA) binding as described by de Boer et al., Arzneim. Forsch., 40, 550-554, 1990.

sigma receptor [2] = experiment: sigma receptor binding, 1,3-di-o-tolylguanidine (DTG) binding; conditions: 1,3-di-o-tolylguanidine binding
Procedure: as §1

α1 adrenoceptor [3] = experiment: α1 adrenoceptor activity of the prior art compounds (statement in background); conditions: in words
sigma receptor [4] = conditions: in words; disclosed in WO 91/09594; cited from earlier work
[5] = in words; literature (Tamminga and Gerlach); cited from earlier work

| Structure (SMILES) | PRA pKi (-log Ki) (α1 adrenoceptor [1]) | DTG pKi (-log Ki) (sigma receptor [2]) | α1 adrenoceptor activity (α1 adrenoceptor [3]) | sigma receptor affinity (sigma receptor [4]) | induction of orthostatic hypotension [5] |
| --- | --- | --- | --- | --- | --- |
| Cl.Cl.c1ccc(CCCN2CCN(CCOCc3ccccc3)CC2)cc1 [Compound of Example 1, 1-[2-(phenylmethoxy)ethyl]-4-(3-phenylpropyl)piperazine dihydrochloride] | 5.7 | 8.7 |  |  |  |
| c1ccc(CCCCN2CCN(Cc3ccccc3)CC2)cc1 [Compound 79 of WO 91/09594] | 7.4 | 8.6 | possess α1 adrenoceptor activity | displaying sigma receptor affinity |  |
| CN1CCN(C2=Nc3cc(Cl)ccc3Nc3ccccc32)CC1 [clozapine] |  |  |  |  | induction of orthostatic hypotension |
| c1ccc(CCCN2CCN(c3ccccc3)CC2)cc1 [Compound 46 of WO 91/09594] | 8.7 | 8.2 | possess α1 adrenoceptor activity | displaying sigma receptor affinity |  |
